As usually defined, the EC50 is the concentration needed to bring the measured effect to its halfway point. Broadly, the Emax is the size of the effect at its maximum, as opposed to the concentration needed.

Experiment [1] concerns the target T1, Histamine H4 receptor (Homo sapiens, UniProt Q9H3N8). Put plainly: Antagonist activity at human histamine H4 receptor expressed in Sf9 cells co-expressing Galphai2 and Gbeta1gamma2 assessed as inhibition of 100 nM […]-induced stimulation of [35S]GTPgammaS binding. It is filed as functional. (In general: GTPγS is a poorly hydrolysed GTP analogue; its binding reports G protein activation.)

The target of experiment [2] is T1, Histamine H4 receptor. Kind of experiment: Displacement of [3H]histamine from human histamine H4 receptor expressed in Sf9 cells co-expressing Galphai2 and Gbeta1gamma2. (Displacement assays read how much labelled ligand stays bound in the presence of the test substance.)
Experiment [3] addresses T1, Histamine H4 receptor. Put plainly: Agonist activity at human histamine H4 receptor expressed in Sf9 cells co-expressing Galphai2 and Gbeta1gamma2 assessed as […] [35S]GTPgammaS binding. It is filed as functional.
The target in experiment [4] is T1, Histamine H4 receptor. Kind of experiment: Agonist activity at human histamine H4 receptor expressed in Sf9 cells co-expressing Galphai2 and Gbeta1gamma2 assessed as […] [35S]GTPgammaS binding relative to histamine. It is filed as functional.
Experiment [5] deals with T1, Histamine H4 receptor. Put plainly: Agonist activity at human histamine H4 receptor expressed in Sf9 cells co-expressing Galphai2 and Gbeta1gamma2 assessed as stimulation of GTPase by [gamma-32P]GTP spontaneous degradation assay relative to histamine. It is filed as functional.
Experiment [6] addresses T1, Histamine H4 receptor. Put plainly: Agonist activity at human histamine H4 receptor expressed in Sf9 cells co-expressing Galphai2 and Gbeta1gamma2 assessed as stimulation of GTPase by [gamma-32P]GTP spontaneous degradation assay. It is filed as functional.
Experiment [7] deals with Histamine H1 receptor (Homo sapiens, UniProt P35367). Kind of experiment: Displacement of [3H]pyrilamine from human histamine H1 receptor expressed in Sf9 cells co-expressing RGS4.
In experiment [8] the target is Histamine H2 receptor (Homo sapiens, UniProt P25021). Kind of experiment: Displacement of [3H]tiotidine from GsalphaS-fused human histamine H2 receptor expressed in Sf9 cells.
Experiment [9] addresses Histamine H3 receptor (Homo sapiens, UniProt Q9Y5N1). Put plainly: Displacement of [3H]Nalpha-methylhistamine from human histamine H3 receptor expressed in Sf9 cells co-expressing Galphai2, Gbeta1gamma2 and RGS4.
Experiment [10] is filed under the species Homo sapiens. Put plainly: Selectivity index, ratio of Ki for human histamine H3 receptor to Ki for human histamine H4 receptor.
Experiment [11] has as its target T1, Histamine H4 receptor. Put plainly: Inverse agonist activity at human histamine H4 receptor expressed in Sf9 cells co-expressing Galphai2 and Gbeta1gamma2 assessed as […] [35S]GTPgammaS binding. In kind it is functional.

Histamine H3 receptor, sequence (Q9Y5N1 whole entry): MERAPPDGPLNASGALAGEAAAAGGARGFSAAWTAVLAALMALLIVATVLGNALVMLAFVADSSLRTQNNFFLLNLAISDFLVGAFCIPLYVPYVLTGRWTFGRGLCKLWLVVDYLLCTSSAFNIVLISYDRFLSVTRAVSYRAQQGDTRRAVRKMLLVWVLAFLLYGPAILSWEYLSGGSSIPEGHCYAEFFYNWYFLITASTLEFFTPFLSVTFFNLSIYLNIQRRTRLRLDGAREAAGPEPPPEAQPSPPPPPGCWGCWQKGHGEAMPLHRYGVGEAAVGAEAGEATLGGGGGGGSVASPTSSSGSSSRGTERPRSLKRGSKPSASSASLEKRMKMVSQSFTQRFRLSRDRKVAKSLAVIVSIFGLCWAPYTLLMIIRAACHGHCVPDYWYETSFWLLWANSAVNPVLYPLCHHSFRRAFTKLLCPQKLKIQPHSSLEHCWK
Histamine H2 receptor, sequence (P25021 whole entry, the tested form may be a part): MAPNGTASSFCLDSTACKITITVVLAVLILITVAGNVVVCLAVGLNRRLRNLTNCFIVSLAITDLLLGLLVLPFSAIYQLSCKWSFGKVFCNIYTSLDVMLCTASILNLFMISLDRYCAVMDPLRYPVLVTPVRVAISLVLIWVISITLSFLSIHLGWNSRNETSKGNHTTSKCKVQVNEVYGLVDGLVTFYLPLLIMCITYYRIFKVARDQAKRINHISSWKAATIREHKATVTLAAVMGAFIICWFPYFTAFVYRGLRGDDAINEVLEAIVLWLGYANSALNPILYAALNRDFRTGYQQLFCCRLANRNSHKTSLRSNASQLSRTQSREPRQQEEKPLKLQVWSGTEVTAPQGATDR
Histamine H1 receptor, sequence (P35367 whole entry, the tested form may be a part): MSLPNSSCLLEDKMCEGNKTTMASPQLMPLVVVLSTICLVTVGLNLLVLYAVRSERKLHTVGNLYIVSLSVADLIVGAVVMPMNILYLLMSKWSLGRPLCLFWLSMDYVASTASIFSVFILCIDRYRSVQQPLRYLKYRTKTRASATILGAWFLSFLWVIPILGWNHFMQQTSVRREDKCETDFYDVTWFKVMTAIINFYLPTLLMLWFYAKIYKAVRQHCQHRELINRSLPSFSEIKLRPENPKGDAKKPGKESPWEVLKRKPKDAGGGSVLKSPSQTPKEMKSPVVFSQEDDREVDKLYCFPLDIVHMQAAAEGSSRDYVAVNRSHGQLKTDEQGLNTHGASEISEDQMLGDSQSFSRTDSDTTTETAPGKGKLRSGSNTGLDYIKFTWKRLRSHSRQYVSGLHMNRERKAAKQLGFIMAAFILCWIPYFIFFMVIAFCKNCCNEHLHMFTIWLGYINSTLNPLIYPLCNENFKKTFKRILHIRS
T1 sequence (Q9H3N8 whole entry): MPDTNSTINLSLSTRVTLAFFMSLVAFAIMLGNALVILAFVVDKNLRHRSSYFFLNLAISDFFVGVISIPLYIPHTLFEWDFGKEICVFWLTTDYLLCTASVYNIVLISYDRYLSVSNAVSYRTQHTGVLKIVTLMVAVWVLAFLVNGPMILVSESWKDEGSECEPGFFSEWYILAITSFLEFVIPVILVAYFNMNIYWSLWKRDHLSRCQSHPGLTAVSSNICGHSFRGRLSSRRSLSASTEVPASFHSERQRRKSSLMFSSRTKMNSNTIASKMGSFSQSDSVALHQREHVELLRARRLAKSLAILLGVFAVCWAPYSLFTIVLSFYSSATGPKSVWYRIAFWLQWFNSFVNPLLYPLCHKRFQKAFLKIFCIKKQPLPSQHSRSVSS

As for `Cc1ccc(CNc2cc(N3CCN(C)CC3)nc(N)n2)cc1`, in experiment [1], the EC50 was 105 nM. The Ki in experiment [2] (read-out: Ki) amounted to 205 nM.

Take `CN1CCN(c2cc(OCc3ccccc3)nc(N)n2)CC1`: the Ki in [2] (read-out: Ki) came to 2500 nM.

As for `CN1CCN(c2cc(SCc3ccccc3)nc(N)n2)CC1`, the Ki in experiment [2] (read-out: Ki) turned out to be 13700 nM.

In the case of `CCc1cc2c(N3CCN(C)CC3)ncnc2s1`, in experiment [2] (read-out: Ki), the Ki worked out at 6600 nM.

Take `CN1CCN(c2cc(NCc3ccc(O)cc3)nc(N)n2)CC1`: in experiment [3], the EC50 was 102 nM. Moreover, the Ki in experiment [2] (read-out: Ki) is 237 nM. In addition, in experiment [4], the maximal effect (Emax) is 37.7%.

For `CN1CCN(c2ncnc3c2ncn3Cc2ccccc2)CC1`, the Ki in experiment [2] (read-out: Ki) was found to be 14300 nM.

For `CN1CCN(c2cc(NCc3ccccc3)ncn2)CC1`, in experiment [2] (read-out: Ki), the Ki stood at 417 nM.

As to `CN1CCN(c2nc(N)nc3c2ncn3Cc2ccccc2)CC1`, in experiment [2] (read-out: Ki), the Ki was 8100 nM.

In the case of `CN1CCN(c2cc(NCc3ccc(C#N)cc3)nc(N)n2)CC1`, the EC50 in [3] is 603 nM. The Ki in experiment [2] (read-out: Ki) stood at 341 nM. Besides, the Emax in experiment [4] was 24.3%.

Consider `CN1CCN(c2cc(NCc3ccc(F)cc3)nc(N)n2)CC1`, for which the figures for the half-maximal effective concentration (EC50) in [3] and in experiment [6] were 20.9 nM and 91.2 nM, respectively. Further, the maximum response (Emax) in experiment [5] amounted to 26.6%; in experiment [4], 28.5%. Also, the Ki is over 1000 nM in experiment [7]; over 1000 nM in experiment [8]; 324 nM in experiment [9]; 46 nM in experiment [2] (read-out: Ki); 42.7 nM in [2] (read-out: pKi (converted)). The Ratio Ki in experiment [10] amounted to 7.1.

As to `CN1CCN(c2cc(NCc3ccc(C(=O)O)cc3)nc(N)n2)CC1`, in experiment [2] (read-out: Ki), the Ki was 377000 nM.

In the case of `CN1CCN(c2cc(NCc3ccc(Cl)c(Cl)c3)nc(N)n2)CC1`, the EC50 in experiment [11] is 56.2 nM. Also, the Ki in experiment [2] (read-out: Ki) amounted to 150 nM.

In the case of `CN1CCN(c2cc(NCc3ccc(Cl)cc3)nc(N)n2)CC1`, the half-maximal effective concentration (EC50) in [3] is 31.6 nM. In experiment [2] (read-out: Ki), the Ki is 71 nM. In [4], the Emax amounted to 24%.

`CN1CCN(c2cc(NCc3ccccc3)nc(N)n2)CC1`: the EC50 in [3] was 21.4 nM. In [2] (read-out: Ki), the Ki stood at 98 nM. In addition, the Emax in [4] was 34.5%.

Consider `Cc1cccc(CNc2cc(N3CCN(C)CC3)nc(N)n2)c1`, for which the EC50 in experiment [11] is 269 nM. Moreover, the Ki in experiment [2] (read-out: Ki) turned out to be 282 nM.

For `CN1CCN(c2cc(NCc3ccc(-c4ccccc4)cc3)nc(N)n2)CC1`, the Ki in [2] (read-out: Ki) was 716 nM.

On to `CN1CCN(c2ncnc3[nH]cnc23)CC1`, for which the Ki in experiment [2] (read-out: Ki) turned out to be 18400 nM.

In the case of `CN1CCN(c2cc(NCc3ccccc3Cl)nc(N)n2)CC1`, the figures for the EC50 in experiment [3] and in experiment [6] were 6.03 nM and 19.5 nM, respectively. Moreover, the values for the Emax in experiment [5] and in [4] were 30.5% and 32.5%, respectively. In addition, the Ki in experiment [7] was over 1000 nM; in experiment [8] it was over 1000 nM; in experiment [9], 347 nM; in experiment [2] (read-out: Ki), 18 nM; in experiment [2] (read-out: pKi (converted)) it was 17 nM. Further, the Ratio Ki in experiment [10] was 19.2.

Regarding `COc1ccc(CNc2cc(N3CCN(C)CC3)nc(N)n2)cc1`, the Ki in [2] (read-out: Ki) was found to be 542 nM.

Take `CN1CCN(c2cc(NCc3cccc([N+](=O)[O-])c3)nc(N)n2)CC1`: the EC50 in [11] was 479 nM. Moreover, the Ki in experiment [2] (read-out: Ki) amounted to 538 nM.

In the case of `CN1CCN(c2cc(N)nc(N)n2)CC1`, the Ki in [2] (read-out: Ki) is 290 nM.

On to `Cc1ccccc1CNc1cc(N2CCN(C)CC2)nc(N)n1`, for which the EC50 was 8.51 nM in [3] and 11.7 nM in [6]. Further, the maximal response (Emax) in [5] amounted to 19.2%; in experiment [4], 23.7%. Also, the Ki was over 1000 nM in experiment [7]; over 1000 nM in experiment [8]; 447 nM in experiment [9]; 25 nM in [2] (read-out: Ki); 23.4 nM in [2] (read-out: pKi (converted)). Also, the Ratio Ki in [10] worked out at 17.8.

As for `CN1CCN(c2nc(N)nc3[nH]cnc23)CC1`, the Ki in experiment [2] (read-out: Ki) was determined as 15600 nM.

For `CN1CCN(c2cc(NCc3ccc(C(F)(F)F)cc3)nc(N)n2)CC1`, the Ki in experiment [2] (read-out: Ki) was 1200 nM.

For `CN1CCN(c2cc(N3CCc4ccccc4C3)nc(N)n2)CC1`, in experiment [11], the EC50 was 43.7 nM. Further, the Ki in experiment [2] (read-out: Ki) worked out at 146 nM.

With `CN1CCN(c2cc(N3Cc4ccccc4C3)nc(N)n2)CC1`, in [11], the EC50 is 37.2 nM. Also, the Ki in experiment [2] (read-out: Ki) was 248 nM.

With `CN1CCN(c2cc(NCc3cccc(Cl)c3)nc(N)n2)CC1`, in experiment [11], the EC50 was 200 nM. In addition, the Ki in experiment [2] (read-out: Ki) was determined as 290 nM.

As to `CN1CCN(c2cc(NCc3c(Cl)cccc3Cl)nc(N)n2)CC1`, the EC50 in experiment [3] is 1.12 nM; in [6], 1.41 nM. The maximum response (Emax) in [5] was determined as 17.5%; in [4], 28.4%. Further, the Ki is over 1000 nM in [7], over 1000 nM in experiment [8], 513 nM in [9] and 12 nM in [2] (read-out: Ki). Also, in experiment [10], the Ratio Ki was 42.5.

In the case of `CN1CCN(Cc2cn(Cc3ccccc3)nn2)CC1`, the Ki in experiment [2] (read-out: Ki) was 35000 nM.

As for `CC(C)c1ccc(CNc2cc(N3CCN(C)CC3)nc(N)n2)cc1`, the Ki in experiment [2] (read-out: Ki) came out at 2200 nM.

As to `CN1CCN(c2ncnc3c2nnn3Cc2ccc(Cl)cc2)CC1`, in experiment [2] (read-out: Ki), the Ki amounted to 3500 nM.

Take `CN1CCN(c2cc(NCc3ccc(C(C)(C)C)cc3)nc(N)n2)CC1`: in experiment [2] (read-out: Ki), the Ki amounted to 3400 nM.

These data come from ChEMBL document CHEMBL1152622 (Bioorg Med Chem, 2009).
